Test results from patent US20100254965A1, “Adenosine Signaling in Diagnosis, Treatment, and Prevention of Priapism and Erectile Dysfunction” (BOARD OF REGENTS ,THE UNIVERSITY OF TEXAS SYSTEM, priority 2006, published 2010).

Legend:
[1] = tested on: corpus cavernosum of wild type, A2A-deficient and A2B-deficient mice; assay: Intracavernous injection of adenosine: intracavernous pressure (ICP) and penile erection; format: in vivo, mouse
Procedure: FIG. 6. Different amounts of adenosine were injected into the corpus cavernosum of wild type, adenosine receptor A2A-deficient, and adenosine receptor A2B-deficient mice and the resulting change in ICP determined.
Methods: ADA-deficient mice and SCD transgenic mice, a well accepted priapism animal model, are the only animals known in which a persistent and prolonged penile erection occurs spontaneously. […] We have measured intracavernosal pressure and corpus cavernosal strip (CCS) relaxation with or without PEG-ADA treatment and/or a series of adenosine receptor antagonists or agonists in wild type ADA-deficient mice, and corpus cavernosal strip (CCS) relaxation with or without PEG-ADA treatment and/or a series of adenosine receptor antagonists or agonists in SCD transgenic mice, in response to nerve stimulation. We have also measured the intracavernosal pressure and CCS relaxation with or without adenosine treatment in wild type and multiple adenosine receptor deficient mice.

[2] = tested on: corpus cavernosal strips (CCS); assay: Adenosine-induced relaxation of corpus cavernosal strips (CCS); format: cell-based, mouse
Procedure: FIG. 16. […] CCS of wild type mice were treated with different concentrations of adenosine with or without DCF (5 μM), a specific inhibitor of adenosine deaminase. Then the extent (mN) of force was monitored. (b) CCS of wild type mice were treated with 100 μM adenosine in the presence of different concentrations of DCF (0-100 uM). Then the extent of force was measured. Data are expressed as mean±SE. *p<0.05, adenosine treated versus the control, **p<0.05, DCF treated versus the adenosine treated.
FIG. 17. A2BR signaling is required for adenosine-mediated corpus cavernosal strips (CCS) relaxation. (a) CCS of wild type mice were treated with different concentrations of theophiline (1-10 μM) in the presence or absence of adenosine (100 μM). The force changes were measured by force transducer. Data are expressed as mean±SE. *p<0.05, adenosine treated versus the control, **p<0.05, theophiline treated versus the untreated, N=5. (b) CCS from wild type, A2AR, A1R A2BR and A3R-deficient mice were treated with different concentrations of adenosine. The relaxation was measured by force transducer. Data are expressed as mean±SE. *p<0.05, adenosine treated versus the wild type. (c) CCS were isolated from wild type and A2BR-deficient mice and treated with different concentrations of adenosine in the presence or absence of L-NAME (100 μM) or MRS1706 (10 μM). 10 min after treatment, cellular extracts were collected and cAMP levels were measured by using a commercial enzyme immunoassay kit (Amersham Pharmacia). Data are expressed as mean±SE. *p<0.05, adenosine treated versus the control without treatment; **p<0.05, adenosine treated with MRS1706 versus the adenosine treated alone; ***p<0.05, CCS of A2BR-deficient mice treated with adenosine versus the CCS of wild type mice treated with adenosine. N=6-7. (d) CCS of A2BR and ADA double deficient mice lost the hypersensitivity to nerve stimulation compared to ADA deficient mice.
Function experiments. The tunica albuginea was cut longitudinally, starting at the most proximal point of the corpus cavernosum (CC) toward the penile shaft, and the erectile tissue was partially dissected free from the tunica. One strip of tissue (0.3×0.3×3 mm) was obtained from each corpus cavernosum. The contractility of each isolated corpus cavernosum smooth muscle cells (CCSM) strip was measured using an isometric force transducer (AD Instrument Inc., Georgia, Vt., USA). The strip was mounted in a thermostatically controlled tissue bath containing aerated PSS (mM: 119 NaCl, 4.7 KCl, 24 NaHCO 3, 1.2 KH2PO4, 2.5 CaCl2, 1.2 MgSO4, 0.023 EDTA, and 11 glucose; 5 ml volume, 95% O2 and 5% CO2, 37° C.) and stretched to a resting tension of 0.1 mN. The contractile responses of the strips were analysed by adding 10 μM phenylephrine to the bath, and force changes were recorded in response to drug application and to electrical field stimulation. The particular electrical field stimulation parameters of 0-30V, 30 HZ with a pulse width of approximately 0.5 ms, are commonly used in the mice. […] The changes of cAMP and cGMP contents in CC strips were subsequently measured by commercial enzyme immunoassay kit (Amersham Pharmacia) (see below).

[3] = tested on: corpus cavernosal strips (CCS); assay: EFS-induced cAMP in CCS of ADA+ and ADA-/- mice; format: cell-based, mouse; settings: CCS of either ADA-/- or ADA+ mice, EFS 5V 30 Hz; MRS1706 (10 nM), ZM241385 (50 nM), L-NAME (100 μM)
Procedure: FIG. 19. EFS leads to increased cAMP and cGMP production via A2BR in ADA-deficient mice. (a-b) Corpus cavernosal strips (CCS) of the ADA−/− and ADA+ mice were isolated and treated with 10 μM phenylephrine (PE) to induce precontraction. Then CCS were treated with MRS1706 (10 nM), ZM241385 (50 nM) or L-NAME (100 μM) prior to electrical field stimulation (EFS) at 5V and 30 Hz. 60 second after nerve stimulation, the CCS were quickly frozen and cellular cAMP (a) and cGMP (b) were measured by using commercial enzyme immunoassay kit (Amersham Pharmacia). N=4. Data are expressed as mean±SE. *p<0.05, ADA deficient mice versus the control; **p<0.05, CCS of ADA-deficient mice with MRS1706 and/or L-NAME treatment versus CCS of ADA-deficient mice without treatment; ***p<0.05, CCS of the control mice with MRS1706 and/or L-NAME treatment versus CCS of the control mice without treatment.
Function experiments. […] The contractility of each isolated corpus cavernosum smooth muscle cells (CCSM) strip was measured using an isometric force transducer (AD Instrument Inc., Georgia, Vt., USA). […] The contractile responses of the strips were analysed by adding 10 μM phenylephrine to the bath, and force changes were recorded in response to drug application and to electrical field stimulation. […]

| SMILES | adenosine-induced increase in ICP ([1]; A2B-deficient mice, injection into the corpus cavernosum) | intracavernous pressure (ICP) and its duration ([1]; wild type mice, administration of adenosine) | penile erection ([1]; wild type mice, local (intracavernous) injection) | CCS relaxation ([2]; A1R, A2AR and A3R deficient mice and wild type mice) | CCS relaxation ([2]; CCS from A2BR deficient mice) | CCS relaxation ([2]; CCS from wild type mice, different concentrations) | EFS-increased cAMP levels were blocked [3] |
| --- | --- | --- | --- | --- | --- | --- | --- |
| Nc1ncnc2c1ncn2[C@@H]1O[C@H](CO)[C@@H](O)[C@H]1O [adenosine] | significantly reduced | induced an increase in intracavernous pressure (ICP) and its duration | resulted in penile erection | dose-dependent increase in relaxation | completely absent | induced CCS relaxation in a dosage dependent manner | – |
| CCCn1c(=O)c2[nH]c(-c3ccc(OCC(=O)Nc4ccc(C(C)=O)cc4)cc3)nc2n(CCC)c1=O [MRS1706] | – | – | – | – | – | – | completely blocked |
